The text below walks through data of article PMC9718795, “Caffeic acid N-[3,5-bis(trifluoromethyl)phenyl] amide as a non-steroidal inhibitor for steroid 5α-reductase type 1 using a human keratinocyte cell-based assay and molecular dynamics” (Scientific Reports, 2022).

Data set [1] can be described thus: In vitro cytotoxic MTT assay against HaCaT cells. The data set is classed as cell-based, human. The note with it: human, HaCaT cells (human keratinocytes), read-out: Cytotoxicity IC50 against HaCaTs. Here is the method: (§1) The cytotoxicity of caffeic acid and its amide derivatives were evaluated with two cell lines, human keratinocyte (HaCaT) and DP cells, using the common cell viability assay with MTT. HaCaT and DP cells were seeded at 1 × 10^4 cell/well in 96-well plates in a complete DMEM medium, incubated overnight, and treated with test compounds at 0–50 µM for 24 h. The stock solutions of all the test compounds were prepared in DMSO. Each compound was serially diluted in DMEM to achieve concentrations at 0.5–50 µM; DMEM was used as the negative control. After 24 h of treatment, the culture medium was removed, and cell viability was determined by adding 100 µL of 0.5 mg/mL MTT at 37 °C in darkness for 3 h. After removing the MTT solution, 100 µL of DMSO was added to each well to dissolve the purple formazan crystals. The absorbance was measured at 570 nm using a microplate reader, and the IC50 value was calculated. Each experiment was performed in triplicates.
(Formazan colour is commonly taken as a measure of viable cells.)

The subject of data set [2] is dermal papilla (DP) cells. Description: In vitro cytotoxic MTT assay against DP cells. Format: cell-based, human. The note with it: 0.5–50 µM, 24 h. Here is the method: as §1

By IC50 is commonly meant the concentration that inhibits the measured activity by half.

With `O=C(C=Cc1ccc(O)c(O)c1)Nc1cc(C(F)(F)F)cc(C(F)(F)F)c1` [Compound 4, 3-(3,4-dihydroxyphenyl)-N-[3,5-bis (trifluoromethyl)phenyl]-2-propenamide], in data set [1], the IC50 at 24 h came to 30 ± 8.69 µM. Moreover, in data set [2], the “Toxicity against DP cells” value is recorded as “no toxicity”.
